{"source": "ChEMBL document CHEMBL3217715", "about": "“Are pyridazines privileged structures?” (Medchemcomm, 2011)", "target": "D(2) dopamine receptor (Homo sapiens, UniProt P14416)", "sequence (P14416 whole entry)": "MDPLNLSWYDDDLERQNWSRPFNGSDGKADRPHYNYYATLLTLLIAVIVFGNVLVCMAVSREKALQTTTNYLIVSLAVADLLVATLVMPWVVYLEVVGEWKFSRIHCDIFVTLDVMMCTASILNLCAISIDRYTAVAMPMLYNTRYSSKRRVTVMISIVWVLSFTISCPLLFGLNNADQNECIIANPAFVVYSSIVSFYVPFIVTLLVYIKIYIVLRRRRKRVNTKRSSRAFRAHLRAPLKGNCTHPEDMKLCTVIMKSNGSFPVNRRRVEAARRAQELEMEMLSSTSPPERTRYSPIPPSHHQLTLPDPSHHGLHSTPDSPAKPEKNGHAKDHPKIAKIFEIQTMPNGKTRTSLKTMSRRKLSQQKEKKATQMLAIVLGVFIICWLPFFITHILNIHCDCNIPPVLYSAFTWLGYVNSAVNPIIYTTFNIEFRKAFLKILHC", "experiment": "Antagonist activity at dopamine D2 receptor (unknown origin)"}
{"smiles": "CCN1CCCC1CNc1nncc2ccc(OC)c(OC)c12", "note": "(stereo unspecified)", "values": [{"measurement": "Ki", "value": 3.9, "unit": "nM"}]}
